The nature of series [1]: 3′-O-Cyanoethyl cleavage in solution or on Biochips. The settings on record: added reagent in cleavage buffer, FIGS. 2 and 3.
A further series has as its system polymerase. The series is described as follows: Polymerase incorporation in sequencing by synthesis on nanoball arrays (FIG. 1). It is filed as biochemical. The settings on record: compared with unlabeled (cold) control 3′-O-azidomethyl-dTTP. How it is done:
(§1) Allenyl-dTTP and cyanoethenyl-dTTP were incubated at room temperature for 24 hours, or 65° C. for 2 hours. Fresh mixes were also made the day of the experiment. Allenyl-dTTP or cyanoethenyl-dTTP were mixed with unlabeled AGC (AGC-Cold) and used as both the hot (labeled) and cold (unlabeled) chase. Nanoball arrays were imaged to obtain a control image. Then, the array was incubated with labeled mixes to check for incorporation on unblocked ends. […] Moreover, both allenyl-dTTP and cyanoethenyl-dTTP are stable at room temperature for 24 hours and 65° C. for 2 hours as indicated by their ability to efficiently incorporate into polymerization product and thereby block subsequent polymerization and incorporation of the hot chase label.

Series [2] in a line: Stability after incubation, read out by incorporation and blocking of hot chase label. It is filed as physicochemical. The procedure:
as §1

Series [3] is described as follows: Monitoring cleavage of 3′-O reversible blocker by LC-MS (Example 2). It counts as physicochemical. How it is done:
Cleavage reactions were performed using 5 mg of compound 8 (3′-O-cyanoethyenyl-thymidine) in 0.25 mL of acetonitrile and 0.25 mL of buffer. Cleavage was monitored by LC-MS and the results are depicted in the table below.

Series [4] in a line: Cleavage studies with a variety of nucleophiles at 50° C. (Example 6). It counts as physicochemical. The procedure:
Cleavage studies were performed according to the scheme shown below using a variety of nucleophiles. The nucleophiles, concentration, pH, and solvent are indicated for each study. The nucleoside analogue containing a 3′-O-blocking group and a linking group were treated with a nucleophile at 50° C. in solvent to form analogues having both the blocking group and linking group cleaved 13 and only the linking group cleaved 15. SM indicates starting material.
Table of Results (Experimental Conditions: T=50° C.; 1.0 mg 12/mL solvent).

“Also recorded” adds a separate entry of the source. Bounds are passed on as bounds.

In the case of `F` [F^−], the “effect on cleavage efficiency” value in series [1] was “improved effect”.

As for `O=P([O-])([O-])OP(=O)([O-])[O-].[K+].[K+].[K+].[K+]` [K4PPi], in series [1], the “effect on cleavage efficiency” value is listed as “improved effect”.

With `C=C=CO[C@H]1C[C@H](n2cc(C)c(=O)[nH]c2=O)O[C@@H]1COP(=O)(O)OP(=O)(O)OP(=O)(O)O` [allenyl-dTTP, 3′-O-allenyl-thymidine triphosphate], in the series on polymerase, the “effectiveness as polymerase substrate for sequencing by synthesis” value is reported as “as effective a polymerase substrate for sequencing by synthesis as the unlabeled control 3′-O-azidomethyl-dTTP; also recorded: as effective polymerase substrates for sequencing as the cold control, 3′-azidomethyl-dTTP”. In addition, the stability entry in series [2] (65° C. for 2 hours) and in series [2] (room temperature for 24 hours) was “stable” each time.

As to `Cc1cn([C@H]2C[C@H](OC=CC#N)[C@@H](CO)O2)c(=O)[nH]c1=O` [compound 8, 3′-O-cyanoethenyl-thymidine], the “time to complete cleavage” value was 20 to 30 min in series [3] (10 equivalents of dimethylamine in acetonitrile/0.1 M TEAB), at most 10 min in series [3] (40 equivalents of dimethylamine in acetonitrile/0.1 M TEAB), 10 to 20 min in series [3] (40 equivalents of dimethylamine in acetonitrile/0.5 M phosphate buffer) and at most 10 min in series [3] (40 equivalents of dimethylamine in acetonitrile/1 M Tris buffer).

Consider `N#C/C=C/O[C@H]1C[C@H](n2cc(C#CCNC(=O)C(F)(F)F)c(=O)[nH]c2=O)O[C@@H]1CO` [compound 12], for which the “amount of the product obtained (SM = starting material)” value in series [4] (Entry 22, Morpholine 1.0 M, pH 9.0, Water + 10% MeCN, t = 1 h) is reported as 25% SM + 40% of (15) + 35% of unidentified species; in series [4] (Entry 22, Morpholine 1.0 M, pH 9.0, Water + 10% MeCN, t = 18 h) it was “No SM 40% of (15) + 60% of unidentified species”; in series [4] (Entry 24, Cleland's reagent (dithiothreitol) 1.0 M, pH 9.0, Water + 10% MeCN, t = 1 h), 5% SM + 95% of unidentified species; in series [4] (Entry 24, Cleland's reagent (dithiothreitol) 1.0 M, pH 9.0, Water + 10% MeCN, t = 18 h), “No SM + unidentified species”; in series [4] (Entry 25, 4-Methoxy-N-methylaniline 1.0 M, pH 8.3, Water/MeCN (1:2), t = 1 h), 95% SM + 5% of unidentified species; in series [4] (Entry 25, 4-Methoxy-N-methylaniline 1.0 M, pH 8.3, Water/MeCN (1:2), t = 18 h) it was 95% SM + 5% of unidentified species. Besides, the “amount of the product obtained (SM = starting material)” value in series [4] (Entry 26, N,N′-Dimethylene diamine 1.0 M, pH 9.0, Water + 10% MeCN, t = 1 h) is 5% SM + 20% of (15) + 75% of unidentified species; in series [4] (Entry 26, N,N′-Dimethylene diamine 1.0 M, pH 9.0, Water + 10% MeCN, t = 18 h) it was “No SM + 20% of (15) + 80% of unidentified species”; in series [4] (Entry 27, N-Methylhydroxyl amine hydrochloride 1.0 M, pH 9.0, Water + 10% MeCN, t = 1 h), 16% Product (13) + 10% of (15) + 74% of unidentified species; in series [4] (Entry 27, N-Methylhydroxyl amine hydrochloride 1.0 M, pH 9.0, Water + 10% MeCN, t = 18 h) it was 10% of (15) + 90% of unidentified species; in series [4] (Entry 28, N,N′-dimethyl-cis-cyclohexane-1,2-diamine 1.0 M, pH 9.0, Water/MeCN (2:1), t = 1 h) it was 60% SM + 35% of (15) + 5% of unidentified species; in series [4] (Entry 28, N,N′-dimethyl-cis-cyclohexane-1,2-diamine 1.0 M, pH 9.0, Water/MeCN (2:1), t = 18 h), 30% SM + 50% of (15) + 20% of unidentified species.

Turning to `Cc1cn([C@H]2C[C@H](OC=CC#N)[C@@H](COP(=O)(O)OP(=O)(O)OP(=O)(O)O)O2)c(=O)[nH]c1=O` [cyanoethenyl-dTTP, 3′-O-cyanoethenyl-thymidine triphosphate], the “effectiveness as polymerase substrate for sequencing by synthesis” value in the series on polymerase was “as effective a polymerase substrate for sequencing by synthesis as the unlabeled control 3′-O-azidomethyl-dTTP”; in the series with polymerase (listed as cyanoethyl-dTTP) it was “as effective polymerase substrates for sequencing as the cold control, 3′-azidomethyl-dTTP”. Moreover, the stability result in series [2] (65° C. for 2 hours) and in series [2] (room temperature for 24 hours) was “stable” each time.

(Values after patent US12195493B2, “Reversibly blocked nucleoside analogues and their use” (MGI Tech Co., Ltd., priority 2016, dated 2025).)
